Several values for one entry are separate records, joined by “and”; a condition that tells them apart may be missing. Identical values can stand only once.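 Each compound was tested at five concentrations against cells in 96-well plates for 48 hours. GI50 is the concentration that inhibits growth by half.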 Activity calls are given as the source filed them. No stated cut-off is given here; in the data, active = GI50 up to about 1.1 µM and inactive = higher.
What was measured:
Assay in all cases: growth of human tumour cells (NCI), 48 h
MOLT-4 = test system: MOLT-4
SK-OV-3 = test system: SK-OV-3
SF-268 = test system: SF-268
UACC-62 = test system: UACC-62
ACHN = test system: ACHN
OVCAR-3 = test system: OVCAR-3
HCT-116 = test system: HCT-116
SW-620 = test system: SW-620
SK-MEL-2 = test system: SK-MEL-2
SK-MEL-28 = test system: SK-MEL-28
LOX IMVI = test system: LOX IMVI
NCI-H23 = test system: NCI-H23
RXF 393 = test system: RXF 393
SNB-75 = test system: SNB-75
786-0 = test system: 786-0
RXF 631 = test system: RXF 631
BT-549 = test system: BT-549
SNB-78 = test system: SNB-78
KM12 = test system: KM12
M14 = test system: M14
Malme-3M = test system: Malme-3M
EKVX = test system: EKVX
A549 = test system: A549
T47D = test system: T47D
DLD-1 = test system: DLD-1
TK-10 = test system: TK-10
SR = test system: SR
DU-145 = test system: DU-145
SK-MEL-5 = test system: SK-MEL-5
A498 = test system: A498
MDA-MB-231 = test system: MDA-MB-231
NCI-H522 = test system: NCI-H522
NCI/ADR-RES = test system: NCI/ADR-RES
UACC-257 = test system: UACC-257
SF-295 = test system: SF-295
OVCAR-8 = test system: OVCAR-8
HT-29 = test system: HT-29
CAKI-1 = test system: CAKI-1
NCI-H460 = test system: NCI-H460
SNB-19 = test system: SNB-19
HCT-15 = test system: HCT-15
Hs-578T = test system: Hs-578T
PC-3 = test system: PC-3
RPMI-8226 = test system: RPMI-8226
DMS-273 = test system: DMS-273
LXFL 529 = test system: LXFL 529
MCF7 = test system: MCF7
MDA-MB-435 = test system: MDA-MB-435
XF498 = test system: XF498
CCRF-CEM = test system: CCRF-CEM
UO-31 = test system: UO-31
SF-539 = test system: SF-539
IGROV-1 = test system: IGROV-1
NCI-H226 = test system: NCI-H226
OVCAR-5 = test system: OVCAR-5
HOP-62 = test system: HOP-62
HCC 2998 = test system: HCC 2998
K562 = test system: K562
HL-60 = test system: HL-60
KM-20L2 = test system: KM-20L2
U-251 = test system: U-251
M19-MEL = test system: M19-MEL
HOP-92 = test system: HOP-92
DMS-114 = test system: DMS-114
SN12C = test system: SN12C
OVCAR-4 = test system: OVCAR-4
COLO 205 = test system: COLO 205
MDA-N = test system: MDA-N

C/C(=N\N)C(CN1CCCCC1)C(c1ccccc1)c1c(O)c2ccccc2oc1=O (configuration not stated)
GI50 (MOLT-4): > 69.2 µM (inactive)
GI50 (SK-OV-3): > 100 µM (inactive)
GI50 (SF-268): > 100 µM (inactive)
GI50 (UACC-62): > 100 µM (inactive)
GI50 (ACHN): > 100 µM (inactive)
GI50 (OVCAR-3): > 100 µM (inactive)
GI50 (HCT-116): > 100 µM (inactive)
GI50 (SW-620): > 100 µM (inactive)
GI50 (SK-MEL-2): > 100 µM (inactive)
GI50 (SK-MEL-28): > 100 µM (inactive)
GI50 (LOX IMVI): 25.7 µM (inactive)
GI50 (NCI-H23): > 100 µM (inactive)
GI50 (RXF 393): > 54.1 µM (inactive)
GI50 (SNB-75): 32.7 µM (inactive)
GI50 (786-0): > 100 µM (inactive)
GI50 (RXF 631): > 100 µM (inactive)
GI50 (BT-549): > 100 µM (inactive)
GI50 (SNB-78): > 100 µM (inactive)
GI50 (KM12): > 100 µM (inactive)
GI50 (M14): > 100 µM (inactive)
GI50 (Malme-3M): > 87.7 µM (inactive)
GI50 (EKVX): > 100 µM (inactive)
GI50 (A549): > 100 µM (inactive)
GI50 (T47D): > 100 µM (inactive)
GI50 (DLD-1): > 100 µM (inactive)
GI50 (TK-10): > 100 µM (inactive)
GI50 (SR): > 100 µM (inactive)
GI50 (DU-145): > 100 µM (inactive)
GI50 (SK-MEL-5): > 100 µM (inactive)
GI50 (A498): > 100 µM (inactive)
GI50 (MDA-MB-231): > 100 µM (inactive)
GI50 (NCI-H522): > 100 µM (inactive)
GI50 (NCI/ADR-RES): > 100 µM (inactive)
GI50 (UACC-257): > 100 µM (inactive)
GI50 (SF-295): > 100 µM (inactive)
GI50 (OVCAR-8): > 100 µM (inactive)
GI50 (HT-29): > 100 µM (inactive)
GI50 (CAKI-1): > 100 µM (inactive)
GI50 (NCI-H460): > 100 µM (inactive)
GI50 (SNB-19): > 100 µM (inactive)
GI50 (HCT-15): > 100 µM
GI50 (Hs-578T): > 100 µM (inactive)
GI50 (PC-3): > 100 µM (inactive)
GI50 (RPMI-8226): > 100 µM (inactive)
GI50 (DMS-273): > 100 µM (inactive)
GI50 (LXFL 529): > 100 µM (inactive)
GI50 (MCF7): > 100 µM (inactive)
GI50 (MDA-MB-435): > 100 µM (inactive)
GI50 (XF498): > 100 µM (inactive)
GI50 (CCRF-CEM): > 100 µM (inactive)
GI50 (UO-31): > 67.3 µM (inactive)
GI50 (SF-539): > 100 µM (inactive)
GI50 (IGROV-1): > 100 µM (inactive)
GI50 (NCI-H226): > 100 µM (inactive)
GI50 (OVCAR-5): > 100 µM (inactive)
GI50 (HOP-62): > 100 µM (inactive)
GI50 (HCC 2998): > 100 µM (inactive)
GI50 (K562): > 100 µM (inactive)
GI50 (HL-60): > 71 µM (inactive)
GI50 (KM-20L2): > 100 µM (inactive)
GI50 (U-251): > 100 µM (inactive)
GI50 (M19-MEL): > 100 µM (inactive)
GI50 (HOP-92): 67 µM (inactive)
GI50 (DMS-114): > 100 µM (inactive)
GI50 (SN12C): > 100 µM (inactive)
GI50 (OVCAR-4): > 100 µM (inactive)
GI50 (COLO 205): > 100 µM (inactive)

COc1cc([C@H]2Oc3c(c(O)cc4oc(-c5ccccc5)cc(=O)c34)O[C@@H]2CO)ccc1O
GI50 (MOLT-4): > 10 µM (inactive)
GI50 (SK-OV-3): 84.9 µM (inactive)
GI50 (SF-268): 11.7 µM (inactive)
GI50 (UACC-62): 29.9 µM (inactive)
GI50 (HCT-116): 21.5 µM (inactive)
GI50 (SK-MEL-2): 22.8 µM (inactive)
GI50 (SK-MEL-28): 45.8 µM (inactive)
GI50 (NCI-H23): 38.5 µM (inactive)
GI50 (SNB-75): 28.9 µM (inactive)
GI50 (786-0): 21.9 µM (inactive)
GI50 (RXF 631): 23.8 µM (inactive)
GI50 (SNB-78): > 100 µM (inactive)
GI50 (M14): 17.5 µM (inactive)
GI50 (Malme-3M): 24.2 µM (inactive)
GI50 (DLD-1): 16.6 µM (inactive)
GI50 (SR): 8.87 µM (inactive)
GI50 (A498): 67 µM (inactive)
GI50 (NCI-H522): 19.1 µM (inactive)
GI50 (CAKI-1): 63.2 µM (inactive)
GI50 (NCI-H460): 5.14 µM (inactive)
GI50 (RPMI-8226): 7.53 µM (inactive)
GI50 (DMS-273): 8.83 µM (inactive)
GI50 (LXFL 529): 24.3 µM (inactive)
GI50 (XF498): 25.4 µM (inactive)
GI50 (CCRF-CEM): 4.34 µM (inactive)
GI50 (UO-31): 31.9 µM (inactive)
GI50 (SF-539): > 100 µM (inactive)
GI50 (IGROV-1): 51.8 µM (inactive)
GI50 (NCI-H226): 71.1 µM (inactive)
GI50 (HOP-62): > 100 µM (inactive)
GI50 (HCC 2998): 25.6 µM (inactive)
GI50 (K562): 21.6 µM (inactive)
GI50 (HL-60): 13.7 µM (inactive)
GI50 (M19-MEL): 24.7 µM (inactive)
GI50 (HOP-92): 31.7 µM (inactive)
GI50 (DMS-114): 20 µM (inactive)
GI50 (SN12C): 35.9 µM (inactive)
GI50 (OVCAR-4): 23.8 µM (inactive)
GI50 (COLO 205): 31.8 µM (inactive)

CC#CC#C/C=C1\C=CC2(OC=CC2OC(C)=O)O1 (configuration not stated)
GI50 (SK-OV-3): > 100 µM (inactive) and > 89.1 µM (inactive)
GI50 (SF-268): 23.7 µM (inactive) and 19.4 µM (inactive)
GI50 (UACC-62): 18.9 µM (inactive) and 16.4 µM (inactive)
GI50 (ACHN): 10.4 µM (inactive)
GI50 (OVCAR-3): 32.2 µM (inactive)
GI50 (SW-620): 24.8 µM (inactive) and 18.8 µM (inactive)
GI50 (MDA-N): 15.8 µM (inactive)
GI50 (LOX IMVI): 30.1 µM (inactive) and 16.1 µM (inactive)
GI50 (NCI-H23): 15 µM (inactive) and 11 µM (inactive)
GI50 (RXF 393): 12.6 µM (inactive)
GI50 (SNB-75): 38.3 µM (inactive) and 24.9 µM (inactive)
GI50 (RXF 631): 14.5 µM (inactive)
GI50 (BT-549): 34.7 µM (inactive)
GI50 (SNB-78): 10.4 µM (inactive)
GI50 (KM12): 21.7 µM (inactive) and 21.8 µM (inactive)
GI50 (M14): 29.8 µM (inactive) and 18.4 µM (inactive)
GI50 (Malme-3M): 24.8 µM (inactive) and 26.4 µM (inactive)
GI50 (EKVX): 29.9 µM (inactive) and > 40 µM (inactive)
GI50 (A549): 35.2 µM (inactive) and 32.7 µM (inactive)
GI50 (T47D): 24.1 µM (inactive)
GI50 (DLD-1): 16.5 µM (inactive)
GI50 (TK-10): 34 µM (inactive) and 28.1 µM (inactive)
GI50 (SR): 17.6 µM (inactive) and 15.3 µM (inactive)
GI50 (DU-145): 20.4 µM (inactive)
GI50 (SK-MEL-5): 17.9 µM (inactive)
GI50 (A498): 47.6 µM (inactive) and 80.9 µM (inactive)
GI50 (MDA-MB-231): 17.8 µM (inactive)
GI50 (NCI/ADR-RES): 28.6 µM (inactive)
GI50 (SF-295): 47.8 µM (inactive) and 34.3 µM (inactive)
GI50 (OVCAR-8): 31.4 µM (inactive) and 17.9 µM (inactive)
GI50 (HT-29): 16.1 µM (inactive) and 22.4 µM (inactive)
GI50 (CAKI-1): 15.2 µM (inactive) and > 10 µM (inactive)
GI50 (NCI-H460): 32.3 µM (inactive) and 21.7 µM (inactive)
GI50 (SNB-19): > 100 µM (inactive) and > 82.2 µM (inactive)
GI50 (Hs-578T): 27.4 µM (inactive)
GI50 (PC-3): 28.2 µM (inactive)
GI50 (RPMI-8226): 23.2 µM (inactive)
GI50 (DMS-273): 20.1 µM (inactive)
GI50 (LXFL 529): 16.3 µM (inactive)
GI50 (MCF7): 14.4 µM (inactive)
GI50 (MDA-MB-435): 29.4 µM (inactive)
GI50 (XF498): 21.3 µM (inactive)
GI50 (CCRF-CEM): 8.41 µM (inactive) and 14 µM (inactive)
GI50 (UO-31): 15.5 µM (inactive) and 18.4 µM (inactive)
GI50 (SF-539): 25.5 µM (inactive) and 20.7 µM (inactive)
GI50 (IGROV-1): > 42.9 µM (inactive) and 42 µM (inactive)
GI50 (HOP-62): > 100 µM (inactive)
GI50 (HCC 2998): 22 µM (inactive) and 28 µM (inactive)
GI50 (K562): 25.6 µM (inactive) and 19 µM (inactive)
GI50 (HL-60): 20.2 µM (inactive) and 10.4 µM (inactive)
GI50 (KM-20L2): 3.51 µM (inactive)
GI50 (U-251): 19.5 µM (inactive) and 18.5 µM (inactive)
GI50 (HOP-92): 20.6 µM (inactive) and 22.3 µM (inactive)
GI50 (DMS-114): 18.2 µM (inactive)
GI50 (SN12C): 15.7 µM (inactive) and 16.5 µM (inactive)
GI50 (COLO 205): 15 µM (inactive) and 16.4 µM (inactive)

From ChEMBL document CHEMBL1201862, “PubChem BioAssay data set” (2004)
